The values below come from ChEMBL document CHEMBL1157881, “Optimization of arylindenopyrimidines as potent adenosine A(2A)/A(1) antagonists” (Bioorg Med Chem Lett, 2010).

As a reminder, the pKi is the Ki on a negative log10 scale, so that one unit is a factor of ten. In general, Cmax refers to the highest concentration seen after dosing. As a reminder, the ED50 is the dose that gives a 50% effect, or the effect in half of the subjects. Read a high ED50 as weaker potency.

Series [1] deals with Adenosine receptor A2a (Homo sapiens, UniProt P29274). Nature of the series: Antagonistic activity at adenosine A2A receptor. The series is classed as functional.
Sequence of Adenosine receptor A2a (P29274 whole entry): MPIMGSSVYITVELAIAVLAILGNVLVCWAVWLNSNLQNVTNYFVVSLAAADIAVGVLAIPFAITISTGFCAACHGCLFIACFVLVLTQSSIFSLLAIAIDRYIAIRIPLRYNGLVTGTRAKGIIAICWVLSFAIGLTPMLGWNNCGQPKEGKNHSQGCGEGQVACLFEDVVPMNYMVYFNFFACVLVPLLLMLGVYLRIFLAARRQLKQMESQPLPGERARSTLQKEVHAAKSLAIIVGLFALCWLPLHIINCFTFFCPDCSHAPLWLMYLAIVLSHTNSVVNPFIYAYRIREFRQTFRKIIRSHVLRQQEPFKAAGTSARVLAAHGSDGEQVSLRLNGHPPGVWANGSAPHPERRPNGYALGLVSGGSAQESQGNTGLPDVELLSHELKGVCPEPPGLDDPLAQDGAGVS
For series [2], the target named is T1, Adenosine receptor A1 (Homo sapiens, UniProt P30542).
T1 sequence (P30542 whole entry): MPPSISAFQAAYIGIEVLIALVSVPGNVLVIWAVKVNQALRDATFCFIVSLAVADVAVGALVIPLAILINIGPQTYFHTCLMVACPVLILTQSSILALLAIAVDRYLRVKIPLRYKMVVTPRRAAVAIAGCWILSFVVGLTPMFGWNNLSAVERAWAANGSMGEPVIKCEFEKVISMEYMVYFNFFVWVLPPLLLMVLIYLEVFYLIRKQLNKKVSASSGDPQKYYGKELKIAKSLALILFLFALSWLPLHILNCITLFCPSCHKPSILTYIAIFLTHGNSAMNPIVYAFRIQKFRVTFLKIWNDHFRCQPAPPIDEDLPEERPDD
The series can be described thus: Antagonistic activity at adenosine A1 receptor. It counts as functional.

Series [3] concerns Mus musculus. The series can be described thus: Antagonist activity against haloperidol-induced catalepsy in mouse at 10 mg/kg, po. It counts as functional, organism-based. Also on record: dose 10 mg/kg.
Series [4] in a line: Cmax in rat brain. It counts as ADME, organism-based.
The test system of series [5] is Mus musculus. Nature of the series: Antagonist activity against haloperidol-induced catalepsy in po dosed mouse. It counts as functional.
Series [6] deals with Mus musculus. Nature of the series: Antagonist activity against haloperidol-induced catalepsy in mouse at 3 mg/kg, po. It counts as functional, organism-based. Also noted: dose 3 mg/kg.

Structures are written as SMILES. pKi: −log10 of the molar value. Calls of active or inactive are those of the source. The calls are words filed in the database; no cut-off is given here.

Take `Nc1nc(-c2ccc(F)cc2)c2c(n1)-c1cc(OCCN3C4CCC3CC4)ccc1C2=O`: the pKi was 7.45 in series [1] and 6.47 in series [2]. Also, the result in series [3] was inactive.
With `Nc1nc(-c2ccccc2)c2c(n1)-c1cc(CN3CCCC3)ccc1C2=O`, in series [4], the Cmax is 3.6 µM.
For the compound `Nc1nc(-c2ccccc2)c2c(n1)-c1cc(N3CCOCC3)ccc1C2=O`, the pKi was 8.54 in series [1] and 7.49 in series [2].
For the compound `CCN(CC)CCOc1ccc2c(c1)-c1nc(N)nc(-c3ccccc3)c1C2=O`, the figures for the pKi in series [1] and in series [2] were 8.10 and 6.99, respectively. In series [5], this compound yielded an ED50 of less than 1 mg/kg.
In the same order, the values of `Nc1nc(-c2ccc(F)cc2)c2c(n1)-c1cc(OCCN3CCOCC3)ccc1C2=O` are 7.74, 6.69 and less than 1 mg/kg.
The like results for `CCN1CCN(c2ccc3c(c2)-c2nc(N)nc(-c4ccccc4)c2C3=O)CC1` were, in that order, 7.94, 6.59 and less than 1 mg/kg.
As to `CCN(CC)CCNC(=O)c1ccc2c(c1)-c1nc(N)nc(-c3ccccc3)c1C2=O`, the results for the pKi in series [1] and in series [2] were 7.87 and 7.34, respectively.
For `CN1CCN(C(=O)c2ccc3c(c2)-c2nc(N)nc(-c4ccccc4)c2C3=O)CC1`, it took a dose of 0.4 mg/kg to reach the 50% effect level in series [5] (ED50). In series [4], the Cmax worked out at 0.6 µM.
As for `CC(C)N1CCN(C(=O)c2ccc3c(c2)-c2nc(N)nc(-c4ccccc4)c2C3=O)CC1`, the negative logarithm of the Ki (pKi) is 7.68 in series [1] and 7.08 in series [2].
As for `Nc1nc(-c2ccccc2)c2c(n1)-c1cc(NCCc3ccncc3)ccc1C2=O`, the pKi in series [1] is 9.05; in series [2], 7.90.
With `CN(C)CCOc1ccc2c(c1)-c1nc(N)nc(-c3ccccc3)c1C2=O`, the pKi in series [1] is 7.76; in series [2] it was 7.48. For the same compound, the ED50 in series [5] is less than 3 mg/kg.
On to `Nc1nc(-c2ccccc2)c2c(n1)-c1cc(NCCc3ccccn3)ccc1C2=O`, for which the figures for the negative logarithm of the Ki (pKi) in series [1] and in series [2] were 9.05 and 7.81, respectively.
With `Nc1nc(-c2ccc(F)cc2)c2c(n1)-c1cc(OCCN3CCCC3)ccc1C2=O`, the figures for the negative-log Ki (pKi) in series [1] and in series [2] were 6.93 and 6.22, respectively. This compound also returned an ED50 in series [5] of 0.8 mg/kg.
Regarding `CC(C)N(CCOc1ccc2c(c1)-c1nc(N)nc(-c3ccc(F)cc3)c1C2=O)C(C)C`, the figures for the pKi in series [1] and in series [2] were 7.12 and 6.33, respectively.
With `CCN1CCC(Nc2ccc3c(c2)-c2nc(N)nc(-c4ccccc4)c2C3=O)CC1`, the results for the negative-log Ki (pKi) in series [1] and in series [2] were 7.90 and 6.85, respectively. For the same compound, in series [6], the result was inactive.
`Nc1nc(-c2ccccc2)c2c(n1)-c1cc(OCCN3CCCCC3)ccc1C2=O`: the pKi is 7.45 in series [1] and 6.71 in series [2].
The like results for `CCN(CC)CCOc1ccc2c(c1)-c1nc(N)nc(-c3ccc(F)cc3)c1C2=O` were, in that order, 7.30 and 6.38.
Regarding `Nc1nc(-c2ccccc2)c2c(n1)-c1cc(NCCN3CCS(=O)(=O)CC3)ccc1C2=O`, the pKi is 8.51 in series [1] and 7.33 in series [2]. Also, the outcome in series [6] was inactive.
Turning to `CN1CCN(c2ccc3c(c2)-c2nc(N)nc(-c4ccccc4)c2C3=O)CC1`, the pKi is 8.57 in series [1] and 7.45 in series [2]. In series [5], this compound had a median effective dose (ED50) of less than 1 mg/kg.
With `CCN1CCN(C(=O)c2ccc3c(c2)-c2nc(N)nc(-c4ccc(F)cc4)c2C3=O)CC1`, the pKi was 7.49 in series [1] and 6.72 in series [2].
As to `CC(C)N1CCC(NC(=O)c2ccc3c(c2)-c2nc(N)nc(-c4ccccc4)c2C3=O)CC1`, the negative-log Ki (pKi) in series [1] was 7.77; in series [2] it was 6.92. For the same compound, it took a dose of 0.4 mg/kg to reach the 50% effect level in series [5] (ED50).
Consider `Nc1nc(-c2ccccc2)c2c(n1)-c1cc(C(=O)N3CCNCC3)ccc1C2=O`, for which the pKi is 7.49 in series [1] and 7.91 in series [2].
Take `CN(C)CCN(C)c1ccc2c(c1)-c1nc(N)nc(-c3ccccc3)c1C2=O`: the pKi in series [1] was 8.33; in series [2], 7.24.
Consider `Nc1nc(-c2ccccc2)c2c(n1)-c1cc(OCCN3CCCC3)ccc1C2=O`, for which the negative-log Ki (pKi) in series [1] is 7.71; in series [2], 6.80. The compound also returned an ED50 in series [5] of less than 1 mg/kg.
Regarding `CC(C)N(CCOc1ccc2c(c1)-c1nc(N)nc(-c3ccccc3)c1C2=O)C(C)C`, the values for the pKi in series [1] and in series [2] were 7.86 and 6.73, respectively. The compound also registered a 50% effective dose (ED50) in series [5] of less than 1 mg/kg.
Consider `CN(C)CCOc1ccc2c(c1)-c1nc(N)nc(-c3ccc(F)cc3)c1C2=O`, for which the pKi in series [1] and in series [2] was 7.43 each time.
`Nc1nc(-c2ccccc2)c2c(n1)-c1cc(NCCN3CCOCC3)ccc1C2=O`: the figures for the pKi in series [1] and in series [2] were 8.36 and 7.49, respectively. In addition, in series [5], the ED50 is less than 1 mg/kg.
For `Nc1nc(-c2ccccc2)c2c(n1)-c1cc(N3CCN(CC4CC4)CC3)ccc1C2=O`, the negative logarithm of the Ki (pKi) in series [1] is 7.63; in series [2] it was 6.60.
In the same order, the values of `CCN1CCC(N(C)c2ccc3c(c2)-c2nc(N)nc(-c4ccccc4)c2C3=O)CC1` are 8.31 and 7.79.
For the compound `CN1CCC(N(C)C(=O)c2ccc3c(c2)-c2nc(N)nc(-c4ccccc4)c2C3=O)CC1`, the pKi in series [1] was 7.73; in series [2], 6.59. The compound further returned an ED50 in series [5] of less than 1 mg/kg.
The compound `Nc1nc(-c2ccccc2)c2c(n1)-c1cc(OCCN3CCOCC3)ccc1C2=O` gave a pKi in series [2] of 7.32. The compound further showed an ED50 in series [5] of less than 1 mg/kg. Further, the Cmax in series [4] was found to be 4.1 µM.
With `CCN(CC)CCN(C)C(=O)c1ccc2c(c1)-c1nc(N)nc(-c3ccccc3)c1C2=O`, the values for the pKi in series [1] and in series [2] were 8.11 and 7.02, respectively. The ED50 in series [5] was less than 1 mg/kg.
In the same order, the values of `CCN1CCN(C(=O)c2ccc3c(c2)-c2nc(N)nc(-c4ccccc4)c2C3=O)CC1` are 7.83, 7.17 and less than 1 mg/kg.
As to `Nc1nc(-c2ccccc2)c2c(n1)-c1cc(C(=O)NCCN3CCOCC3)ccc1C2=O`, the pKi in series [1] is 7.55; in series [2] it was 6.67.
Turning to `CN(C)CCN(C)C(=O)c1ccc2c(c1)-c1nc(N)nc(-c3ccccc3)c1C2=O`, the pKi was 7.91 in series [1] and 6.68 in series [2]. Besides, the ED50 in series [5] was less than 1 mg/kg.
In the same order, the values of `CN1CCN(C(=O)c2ccc3c(c2)-c2nc(N)nc(-c4ccc(F)cc4)c2C3=O)CC1` are 7.95, 7.00 and less than 1 mg/kg.
In the case of `CN1CCCN(c2ccc3c(c2)-c2nc(N)nc(-c4ccccc4)c2C3=O)CC1`, the results for the pKi in series [1] and in series [2] were 8.00 and 6.86, respectively.
